Values after ≈ are worked out from the molar mass of the structure shown.
Assays:
Format in all cases: functional
Escherichia coli [1] = experiment: Antimicrobial activity against Escherichia coli DH5[alpha]
Escherichia coli [2] = experiment: Antimicrobial activity against Escherichia coli J53
Escherichia coli [3] = experiment: Antimicrobial activity against Escherichia coli J53 harboring pEK204 plasmid encoding CTX-M extended-spectrum beta-lactamases
Escherichia coli [4] = experiment: Antimicrobial activity against Escherichia coli J53 harboring pEK499 plasmid encoding CTX-M extended-spectrum beta-lactamases
Escherichia coli [5] = experiment: Antimicrobial activity against Escherichia coli DH5[alpha] harboring pEK516 plasmid encoding CTX-M extended-spectrum beta-lactamases
Escherichia coli [6] = experiment: Antimicrobial activity against Escherichia coli DH5[alpha] in presence of beta-lactamase inhibitor clavulanic acid
Escherichia coli [7] = experiment: Antimicrobial activity against Escherichia coli J53 harboring pEK499 plasmid encoding CTX-M extended-spectrum beta-lactamases in presence of beta-lactamase inhibitor clavulanic acid
Escherichia coli [8] = experiment: Antimicrobial activity against Escherichia coli DH5[alpha] harboring pEK516 plasmid encoding CTX-M extended-spectrum beta-lactamases in presence of beta-lactamase inhibitor clavulanic acid
Escherichia coli [9] = experiment: Antimicrobial activity against Escherichia coli J53 in presence of beta-lactamase inhibitor clavulanic acid
Escherichia coli [10] = experiment: Antimicrobial activity against Escherichia coli J53 harboring pEK204 plasmid encoding CTX-M extended-spectrum beta-lactamases in presence of beta-lactamase inhibitor clavulanic acid
Escherichia coli [11] = experiment: Antimicrobial activity against Escherichia coli DH5[alpha] in presence of beta-lactamase inhibitor Tazobactam
Escherichia coli [12] = experiment: Antimicrobial activity against Escherichia coli J53 in presence of beta-lactamase inhibitor Tazobactam
Escherichia coli [13] = experiment: Antimicrobial activity against Escherichia coli J53 harboring pEK499 plasmid encoding CTX-M extended-spectrum beta-lactamases in presence of beta-lactamase inhibitor Tazobactam
Escherichia coli [14] = experiment: Antimicrobial activity against Escherichia coli J53 harboring pEK204 plasmid encoding CTX-M extended-spectrum beta-lactamases in presence of beta-lactamase inhibitor Tazobactam
Escherichia coli [15] = experiment: Antimicrobial activity against Escherichia coli DH5[alpha] harboring pEK516 plasmid encoding CTX-M extended-spectrum beta-lactamases in presence of beta-lactamase inhibitor Tazobactam

Molecule	MIC (Escherichia coli [1]) [µg/mL]	MIC (Escherichia coli [2]) [µg/mL]	MIC (Escherichia coli [3]) [µg/mL]	MIC (Escherichia coli [4]) [µg/mL]	MIC (Escherichia coli [5]) [µg/mL]	also measured
CN(C)[C@@H]1C(O)=C(C(N)=O)C(=O)[C@@]2(O)C(O)=C3C(=O)c4c(O)cccc4[C@@](C)(O)[C@H]3C[C@@H]12 [TETRACYCLINE]	1 (≈ 2.25 µM)	1 (≈ 2.25 µM)	1 (≈ 2.25 µM)	32 (≈ 72 µM)	32 (≈ 72 µM)	–
NCC[C@H](O)C(=O)N[C@@H]1C[C@H](N)[C@@H](O[C@H]2O[C@H](CN)[C@@H](O)[C@H](O)[C@H]2O)[C@H](O)[C@H]1O[C@H]1O[C@H](CO)[C@@H](O)[C@H](N)[C@H]1O [AMIKACIN]	1 (≈ 1.71 µM)	≤ 0.5	–	4 (≈ 6.83 µM)	2 (≈ 3.42 µM)	–
GENTAMICIN	–	0.25	0.25	0.25	8	–
O=C(N[C@H](CO)[C@H](O)c1ccc([N+](=O)[O-])cc1)C(Cl)Cl [CHLORAMPHENICOL]	2 (≈ 6.19 µM)	2 (≈ 6.19 µM)	2 (≈ 6.19 µM)	2 (≈ 6.19 µM)	2 (≈ 6.19 µM)	–
CC(C)(O/N=C(\C(=O)N[C@@H]1C(=O)N2C(C(=O)[O-])=C(C[n+]3ccccc3)CS[C@H]12)c1csc(N)n1)C(=O)O [CEFTAZIDIME]	0.25 (≈ 0.457 µM)	0.25 (≈ 0.457 µM)	2 (≈ 3.66 µM)	64 (≈ 117 µM)	16 (≈ 29.3 µM)	MIC (Escherichia coli [6]): 0.25 µg/mL; MIC (Escherichia coli [7]): 0.5 µg/mL; MIC (Escherichia coli [8]): 0.25 µg/mL; MIC (Escherichia coli [9]): 0.25 µg/mL; MIC (Escherichia coli [10]): 0.25 µg/mL
COLISTIN	< 0.5	< 0.5	< 0.5	< 0.5	< 0.5	–
O=C(O)c1cn(C2CC2)c2cc(N3CCNCC3)c(F)cc2c1=O [CIPROFLOXACIN]	≤ 0.125	≤ 0.125	–	–	–	–
CCN1CCN(C(=O)N[C@@H](C(=O)N[C@@H]2C(=O)N3[C@@H]2SC(C)(C)[C@@H]3C(=O)O)c2ccccc2)C(=O)C1=O [PIPERACILLIN]	4 (≈ 7.73 µM)	4 (≈ 7.73 µM)	> 64	> 64	64 (≈ 124 µM)	MIC (Escherichia coli [11]): 4 µg/mL; MIC (Escherichia coli [12]): 4 µg/mL; MIC (Escherichia coli [13]): 16 µg/mL; MIC (Escherichia coli [14]): 4 µg/mL; MIC (Escherichia coli [15]): 4 µg/mL
C[C@@H](O)[C@H]1C(=O)N2C(C(=O)O)=C(SCCNC=N)C[C@H]12 [IMIPENEM ANHYDROUS]	0.5 (≈ 1.67 µM)	0.25 (≈ 0.835 µM)	–	–	–	–
CO/N=C(\C(=O)N[C@@H]1C(=O)N2C(C(=O)O)=C(COC(C)=O)CS[C@H]12)c1csc(N)n1 [CEFOTAXIME]	0.25 (≈ 0.549 µM)	≤ 0.125	64 (≈ 141 µM)	256 (≈ 562 µM)	128 (≈ 281 µM)	MIC (Escherichia coli [6]): ≤ 0.06 µg/mL; MIC (Escherichia coli [7]): 0.125 µg/mL; MIC (Escherichia coli [9]): ≤ 0.06 µg/mL; MIC (Escherichia coli [10]): 0.125 µg/mL
Cc1cc(NS(=O)(=O)c2ccc(N)cc2)no1 [SULFAMETHOXAZOLE]	2 (≈ 7.9 µM)	16 (≈ 63.2 µM)	16 (≈ 63.2 µM)	> 1020	2 (≈ 7.9 µM)	–
CN[C@@H]1[C@H](O[C@H]2[C@H](O[C@H]3[C@H](O)[C@@H](O)[C@H](N=C(N)N)[C@@H](O)[C@@H]3N=C(N)N)O[C@@H](C)[C@]2(O)C=O)O[C@@H](CO)[C@H](O)[C@H]1O [STREPTOMYCIN]	1 (≈ 1.72 µM)	1 (≈ 1.72 µM)	2 (≈ 3.44 µM)	32 (≈ 55 µM)	0.5 (≈ 0.86 µM)	–
COc1cc(Cc2cnc(N)nc2N)cc(OC)c1OC [TRIMETHOPRIM]	0.06 (≈ 0.207 µM)	0.06 (≈ 0.207 µM)	0.06 (≈ 0.207 µM)	> 32	0.03 (≈ 0.103 µM)	–
CN(C)c1ccc(O)c2c1C[C@H]1C[C@H]3[C@H](N(C)C)C(O)=C(C(N)=O)C(=O)[C@@]3(O)C(O)=C1C2=O [MINOCYCLINE]	0.25 (≈ 0.546 µM)	0.25 (≈ 0.546 µM)	0.25 (≈ 0.546 µM)	2 (≈ 4.37 µM)	4 (≈ 8.74 µM)	–
C[C@@H](O)[C@H]1C(=O)N2C(C(=O)O)=C(S[C@@H]3CN[C@H](C(=O)N(C)C)C3)[C@H](C)[C@H]12 [MEROPENEM]	≤ 0.06	≤ 0.06	–	–	–	–
C[C@@H](O)[C@H]1C(=O)N2C(C(=O)O)=C(S[C@@H]3CN[C@H](C(=O)Nc4cccc(C(=O)O)c4)C3)[C@H](C)[C@H]12	≤ 0.125	≤ 0.125	–	–	–	–
CC1(C)S[C@@H]2[C@H](NC(=O)[C@H](N)c3ccccc3)C(=O)N2[C@H]1C(=O)O [AMPICILLIN]	16 (≈ 45.8 µM)	8 (≈ 22.9 µM)	> 64	> 64	> 64	–
CC1(C)S[C@@H]2[C@H](NC(=O)[C@H](N)c3ccc(O)cc3)C(=O)N2[C@H]1C(=O)O [AMOXICILLIN]	–	–	–	–	–	MIC (Escherichia coli [6]): 8 µg/mL; MIC (Escherichia coli [7]): 32 µg/mL; MIC (Escherichia coli [8]): 16 µg/mL; MIC (Escherichia coli [9]): 8 µg/mL; MIC (Escherichia coli [10]): 16 µg/mL
CO/N=C(\C(=O)N[C@@H]1C(=O)N2C(C(=O)[O-])=C(C[n+]3cccc4c3CCC4)CS[C@H]12)c1csc(N)n1 [CEFPIROME]	≤ 0.125	≤ 0.125	16 (≈ 31.1 µM)	> 64	64 (≈ 124 µM)	MIC (Escherichia coli [6]): ≤ 0.06 µg/mL; MIC (Escherichia coli [9]): ≤ 0.06 µg/mL
CN(C)c1cc(NC(=O)CNC(C)(C)C)c(O)c2c1C[C@H]1C[C@H]3[C@H](N(C)C)C(O)=C(C(N)=O)C(=O)[C@@]3(O)C(O)=C1C2=O [TIGECYCLINE]	≤ 0.25	≤ 0.25	–	–	–	–
CO[C@@]1(NC(=O)Cc2cccs2)C(=O)N2C(C(=O)O)=C(COC(N)=O)CS[C@@H]21 [CEFOXITIN]	8 (≈ 18.7 µM)	8 (≈ 18.7 µM)	8 (≈ 18.7 µM)	8 (≈ 18.7 µM)	8 (≈ 18.7 µM)	–
C[C@H]1[C@H](NC(=O)/C(=N\OC(C)(C)C(=O)O)c2csc(N)n2)C(=O)N1S(=O)(=O)O [AZTREONAM]	0.25 (≈ 0.574 µM)	–	8 (≈ 18.4 µM)	> 64	32 (≈ 73.5 µM)	–
NC[C@H]1O[C@H](O[C@H]2[C@H](O)[C@@H](O[C@H]3O[C@H](CO)[C@@H](O)[C@H](N)[C@H]3O)[C@H](N)C[C@@H]2N)[C@H](N)C[C@@H]1O [TOBRAMYCIN]	0.5 (≈ 1.07 µM)	0.25 (≈ 0.535 µM)	0.5 (≈ 1.07 µM)	8 (≈ 17.1 µM)	8 (≈ 17.1 µM)	–

Reference: ChEMBL document CHEMBL1649246, “Complete nucleotide sequences of plasmids pEK204, pEK499, and pEK516, encoding CTX-M enzymes in three major Escherichia coli lineages from the United Kingdom, all belonging to the international O25:H4-ST131 clone” (2009)
